Measurements: patent publication US5672707A (priority 1991, dated 1997)
Where two headings read alike, the source gives them in different places.

Legend:
brain synaptosomes = assay: Cholesterol content in brain synaptosomes, old rats; assay type: in vivo; conditions: for Cholesterol content of brain synaptosomes, old rats: 20 days course; for Cholesterol content in synaptosomes (% from total lipid content): old rats (18 month), 20 days application
K channels = assay: Ionic permeabilities of excitable membranes, voltage clamp in the Ranvier node; assay type: cell-based, frog
rat adipocytes [1] = assay: Lipid content in incubation medium after incubation of adipocytes; assay type: cell-based; conditions: for FFA/TG in incubation medium / PL/CL in incubation medium / PL/TG in incubation medium: Table 12
Experimental: (§1) Lipid regulative activity of the declared compounds--derivatives of 9-amino acridine--were evaluated in vitro[…] using rat adipocytes. Adipocytes were separated from adipose tissue of testis appendages of adult male rats. Lipid composition analysis was performed by the method of thin-layer chromatography.
(§2) Quantitative analysis of phospholipids (PL), mono- and diacylglycerides (MDG), triacylglycerides (TG), free fatty acids (FFA), free cholesterol (FCL), and methyl esters of fatty acids (MEFA) was performed by the method of spectrophotometry.

old rats = assay: Passive avoidance test in old rats; assay type: in vivo; conditions: for Passive avoidance latency in 7 days after training: old rats (18 month), 20 days application, 1 mg/kg (piracetam 250 mg/kg)
Experimental: (§3) The influence of drugs on reflex conditioning in rats was studied by the passive avoidance test in conditions of 50% acquisition. The effect of the compound was estimated by the increase of the relative number of learned animals with respect to that of control group. […] The other reference drug--noothropic agent piracetam--was given in the dose 250 mg/kg 60 min before training. Amnestic syndrome was stimulated by 20 days application of Sc at the daily dose of 1 mg/kg intraperitoneally. […] The passive avoidance test was performed within 24 hours after the last application of test preparations.
Improvement of animal performance was accompanied by the normalizing of brain synaptosomes microviscosity under the action of all the substances tested. […] The latter observation indicates to the possible interference of amiridine and substance Vo into the processes of atherogenesis in old animals.

[2] = system: membranes of brain synaptosomes; assay: Microviscosity of brain synaptosome membranes, old rats; assay type: in vivo; conditions: old rats (18 month), 20 days application
Experimental: Microviscosity of membranes of brain synaptosomes was studied with the use of molecular probe pirren. Brain tissue homogenization and preparation of synaptosomes were performed by the method of De Robertis.

mice [3] = assay: Psychotropic activity test: arecoline induced hyperkynesis; assay type: in vivo; conditions: intraperitoneally, dose 1/20 of LD
mice [4] = assay: Psychotropic activity test: motor activity; assay type: in vivo; conditions: intraperitoneally, dose 1/20 of LD
in vivo = conditions: for LD50: in vivo, ip
Experimental: (§4) Psychoneurotropic activity of the declared compounds and their influence on learning and memory were observed using unbred male (18-20 g) mice and 180-200 g) rats, held at standard conditions (room temperature 21°-22° C., 12-hours lighting schedule, food and water ad libitum).
Acute toxicity was studied by the method of Kerber with intra peritoneal drug injection.

rats [5] = assay: Passive avoidance test on the model of amnestic syndrome (multiple scopolamine injection); assay type: in vivo
Experimental: The influence of drugs on reflex conditioning in rats was studied by the passive avoidance test in conditions of 50% acquisition. The effect of the compound was estimated by the increase of the relative number of learned animals with respect to that of control group. […] The passive avoidance test was performed within 24 hours after the last application of test preparations.

rats [6] = assay: Passive avoidance test in normal rats, 50% acquisition; assay type: in vivo; conditions: for change in vivo at 0.1 mg/kg: Rattus norvegicus, 20 min, read-out: Increase of the number of correct trails (% to control). Passive avoidance test (rats)
Experimental: as §4, §3

rat adipocytes [7] = assay: Lipid composition of adipocytes after incubation with compounds; assay type: cell-based; conditions: for FFA/TG in adipocytes / PL/CL in adipocytes / PL/TG in adipocytes: cells, Table 11; for FFAc/FFAm / PLc/PLm: distribution between cells and incubation medium, Table 13
Experimental: as §1, §2

[8] = system: membranes of brain synaptosomes; assay: Microviscosity of brain synaptosome membranes, amnestic syndrome model; assay type: in vivo, rats; conditions: for Microviscosity changes in % to control: rats, scopolamine 20 days, then drug 10 days, brain synaptosomes
mice [9] = assay: Step-down test, scopolamine induced amnesia; assay type: in vivo
Experimental: as §4

[10] = target: T1, Acetylcholinesterase, enzyme from human erythrocytes (Homo sapiens, UniProt P22303); assay: Acetylcholinesterase inhibition, spectrophotometric technique of Ellman; assay type: biochemical; conditions: enzyme from human erythrocytes, Table 5; for IC50: Acetylcholinesterase inhibition IC50 (M)
T1 construct: on the enzyme from human erythrocytes; from tissue; host or cells: human erythrocytes
T1 sequence (P22303-2 with tags, fused parts or gaps limits assumed): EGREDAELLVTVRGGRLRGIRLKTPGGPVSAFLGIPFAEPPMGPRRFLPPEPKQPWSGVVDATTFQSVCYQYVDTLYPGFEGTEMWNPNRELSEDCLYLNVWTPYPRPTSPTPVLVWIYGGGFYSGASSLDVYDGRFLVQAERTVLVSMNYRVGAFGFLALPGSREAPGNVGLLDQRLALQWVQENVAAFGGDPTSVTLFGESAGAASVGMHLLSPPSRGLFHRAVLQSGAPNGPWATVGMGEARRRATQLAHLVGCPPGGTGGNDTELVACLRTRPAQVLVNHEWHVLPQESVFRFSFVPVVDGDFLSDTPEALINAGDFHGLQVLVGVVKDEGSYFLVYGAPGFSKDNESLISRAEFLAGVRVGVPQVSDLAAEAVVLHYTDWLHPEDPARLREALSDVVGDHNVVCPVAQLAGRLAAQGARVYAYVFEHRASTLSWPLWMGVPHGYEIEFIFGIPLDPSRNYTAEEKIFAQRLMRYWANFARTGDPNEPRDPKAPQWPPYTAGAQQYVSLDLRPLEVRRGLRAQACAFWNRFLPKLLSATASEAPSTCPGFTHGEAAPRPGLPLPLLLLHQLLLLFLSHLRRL
Experimental: Acetylcholinesterase inhibition under the action of preparations was assessed by the spectrophotometric technique of Ellman on the enzyme from human erythrocytes.

[11] = intraperitoneal injection, Table 5
[12] = rats, scopolamine 1 mg/kg 20 days, then drug 10 days (1 mg/kg; piracetam 250 mg/kg)
[13] = intraperitoneal injection, Table 5, read-out: LD50 (mg/kg) by Kerber
[14] = ip, rats, 0.1 mg/kg i.p. 20 min before training, piracetam 250 mg/kg 60 min before training

CCCCNc1c2c(nc3ccccc13)CC(C)(C)CC2=O [Vp]
Cholesterol content of brain synaptosomes, old rats (brain synaptosomes): normalized the cholesterol content of brain synaptosomes | Cholesterol content in synaptosomes (% from total lipid content) (brain synaptosomes): 30.1 ± 2.4 % from total lipid content | Capability to induce the shift of potassium permeability voltage dependency (K channels): most pronounced capability to induce the shift of potassium permeability voltage dependency | FFA/TG in incubation medium (rat adipocytes [1]): 0.92 | PL/CL in incubation medium (rat adipocytes [1]): 0.65 | PL/TG in incubation medium (rat adipocytes [1]): 0.52 | Performance of old rats in passive avoidance test (old rats; 20 days course, age 18 months): improved performance of old rats (age 18 months) in passive avoidance test more significantly than in 6 month old adult rats | Passive avoidance latency in 7 days after training (old rats): 169.4 ± 10.5 s | Microviscosity changes (% to control) [2]: 97.9 % to control | Increase of duration of arecoline induced hyperkynesis (% to control) (mice [3]): 0 % to control | Motor activity increment (% to control) (mice [4]): 69 % to control | LD50 (mg/kg) by Kerber (in vivo; [11]): 200.0 ± 21.9 mg/kg | Passive avoidance latency (rats [5]; [12]): 170.3 ± 14.9 s | change in vivo at 0.1 mg/kg (rats [6]; ip): 25% | Lipid-regulative effect compared with probucol (rat adipocytes [7]): not inferior | FFA/TG in adipocytes (rat adipocytes [7]): 1.03 | PL/CL in adipocytes (rat adipocytes [7]): 0.83 | PL/TG in adipocytes (rat adipocytes [7]): 0.89 | FFAc/FFAm (rat adipocytes [7]): 0.93 | PLc/PLm (rat adipocytes [7]): 1.41 | Microviscosity changes in % to control [8]: 93.8 % to control | Antiamnestic activity in Step-down test (mice [9]): pronounced antiatonestic activity, comparable with that of amiridine and tacrine | Antiamnestic activity in Step-down test (% of mice with latency > cut off) (mice [9]): 25 % of mice

CN1[C@@H]2C[C@@H](OC(=O)[C@H](CO)c3ccccc3)C[C@H]1[C@@H]1O[C@@H]12 [Scopolamine (Sc), scopolamine]
Passive avoidance latency (rats [5]; [12]): 70.4 ± 10.5 s

Nc1c2c(nc3c1CCC3)CCCC2 [Amiridine, amiridine, reference compound]
Cholesterol content of brain synaptosomes, old rats (brain synaptosomes): normalized the cholesterol content of brain synaptosomes | Cholesterol content in synaptosomes (% from total lipid content) (brain synaptosomes): 33.2 ± 0.8 % from total lipid content | Passive avoidance latency in 7 days after training (old rats): 116.1 ± 16.9 s | Microviscosity changes (% to control) [2]: 101.7 % to control | Increase of duration of arecoline induced hyperkynesis (% to control) (mice [3]): 100 % to control | Motor activity increment (% to control) (mice [4]): 45 % to control | LD50 (in vivo; [13]): 52 ± 3.4 mg/kg | LD50 (in vivo; read-out: LD): 35 mg/kg | Passive avoidance latency (rats [5]; [12]): 149.0 ± 11.7 s | change in vivo at 0.1 mg/kg (rats [6]; [14]): 70% | Microviscosity changes in % to control [8]: 105.0 % to control | Antiamnestic activity in Step-down test (% of mice with latency > cut off) (mice [9]): 33 % of mice

Nc1c2c(nc3ccccc13)CCCC2 [Tacrine, tacrine, reference compound]
Cholesterol content in synaptosomes (% from total lipid content) (brain synaptosomes): 39.7 ± 1.4 % from total lipid content | Passive avoidance latency in 7 days after training (old rats): 163.4 ± 16.5 s | Microviscosity changes (% to control) [2]: 101.4 % to control | Increase of duration of arecoline induced hyperkynesis (% to control) (mice [3]): 88 % to control | Motor activity increment (% to control) (mice [4]): 0 % to control | LD50 (in vivo; [13]): 35.5 ± 1.8 mg/kg | LD50 (in vivo; read-out: LD): 52 mg/kg | Passive avoidance latency (rats [5]; 1 mg/kg): 169.0 ± 14.8 s | change in vivo at 0.1 mg/kg (rats [6]; ip): 25% | Microviscosity changes in % to control [8]: 97.2 % to control | Antiamnestic activity in Step-down test (% of mice with latency > cut off) (mice [9]): 33 % of mice

NC(=O)CN1CCCC1=O [Piracetam, piracetam, reference compound]
Passive avoidance latency in 7 days after training (old rats): 120.0 ± 24.3 s | Increase of duration of arecoline induced hyperkynesis (% to control) (mice [3]): 0 % to control | Acetylcholinesterase inhibition IC50 (M) [10]: no effect | Motor activity increment (% to control) (mice [4]): 0 % to control | LD50 (in vivo; [13]): 1000 mg/kg | Passive avoidance latency (rats [5]; [12]): 162.3 ± 13.3 s | change in vivo at 0.1 mg/kg (rats [6]): 63%

CCCCNc1c2c(nc3ccccc13)CC(C)(C)CC2=O [Vo]
Ejection of triacylglycerides into external medium (rat adipocytes [1]): enhanced ejection of triacylglycerides into external medium | Performance in passive avoidance test, amnestic syndrome (rats [5]; 10 days application course): improved performance in passive avoidance test in the 10 days application course to the level achieved under the treatment with reference drugs | Change of lipid composition in adipocytes (rat adipocytes [7]): Accumulation of phospholipids in a cell | Content of methyl esters of fatty acids in adipocytes (rat adipocytes [7]): sharp decreases | PL/TG relations and cell cholesterol level (rat adipocytes [7]): increase PL/TG relations and decrease cell cholesterol level | Potency of effect on lipid composition of adipocytes (rat adipocytes [7]): most potent effect on lipid composition of adipocytes | Microviscosity of brain synaptosomes, amnestic syndrome ([8]; 10 days application course): normalizing of microviscosity of brain synaptosomes

CC1(C)C=Cc2c(nc3ccccc3c2N)C1 [VIIb]
Block of K-channels IC (M) (K channels; Ranvier node of the frog, voltage clamp): no effect | Increase of duration of arecoline induced hyperkynesis (% to control) (mice [3]): 25 % to control | IC50 [10]: 7.5e-08 M | Motor activity increment (% to control) (mice [4]): 41 % to control | LD50 (in vivo; [13]): 37.5 ± 0.9 mg/kg | change in vivo at 0.1 mg/kg (rats [6]; [14]): 40% | Performance of normal rats in passive avoidance test (rats [6]): statistically significantly improved performance of normal rats | Antiamnestic activity in Step-down test (mice [9]): pronounced antiatonestic activity, comparable with that of amiridine and tacrine | Antiamnestic activity in Step-down test (% of mice with latency > cut off) (mice [9]): 25 % of mice

Cc1ccc(CNc2c3c(nc4ccccc24)CC(C)(C)CC3O)c(C)c1 (centres unmarked) [VIj]
The shift of activation region of K channels: substance lowest concentrations in M producing measureable shift of 1-2 mV (K channels): no effect | FFA/TG in incubation medium (rat adipocytes [1]): 1.03 | PL/CL in incubation medium (rat adipocytes [1]): 0.65 | PL/TG in incubation medium (rat adipocytes [1]): 0.62 | Increase of duration of arecoline induced hyperkynesis (% to control) (mice [3]): 13 % to control | IC50 [10]: 2.5e-06 M | Motor activity increment (% to control) (mice [4]): 55 % to control | LD50 (mg/kg) by Kerber (in vivo; [11]): 33.4 ± 3.2 mg/kg | Performance of normal rats in passive avoidance test (rats [6]): statistically significantly improved performance of normal rats | Increase of the number of correct trails (% to control). Passive avoidance test (rats) (rats [6]; rats, 0.1 mg/kg i.p. 20 min before training, piracetam 250 mg/kg 60 min before training): 40 % to control | FFA/TG in adipocytes (rat adipocytes [7]): 1.08 | PL/CL in adipocytes (rat adipocytes [7]): 0.80 | PL/TG in adipocytes (rat adipocytes [7]): 0.85 | FFAc/FFAm (rat adipocytes [7]): 0.95 | PLc/PLm (rat adipocytes [7]): 1.24 | Antiamnestic activity in Step-down test (% of mice with latency > cut off) (mice [9]): 0 % of mice
